Assay results published in patent publication US4130650A, “Antiarrhythmic method of use” (priority 1976, dated 1978).
Converted amounts (≈) assume the structure as drawn. Where a name gives a salt, the structure may show the parent alone.

What was measured:
[1] = test system: ouabain-induced ventricular arrhythmia in dogs; assay: Suppression of ouabain-induced ventricular arrhythmia in dogs; format: in vivo, dog; conditions: 12 dogs
Method: (§1) 3. Suppression of ouabain-induced ventricular arrhythmia in dogs
(§2) According to the method described by ALLEN, et al. (supra), dogs were anesthetized by subcutaneous injection of morphine sulfate (0.5 mgm/kg), followed by intravenous injection of pentobarbitone (20 mgm/kg). The animals were given artificial respiration with room air from a Starling pump via a cuffed endotracheal tube. The electrocardiogram (lead II) was recorded on a Devices recorder (Type M8 or M 4). Test compound administration was through a polyethylene catheter inserted in a foreleg vein.
(§3) Observations were made on 12 dogs. Ventricular tachycardia was produced by intravenous injection of ouabain, first 40 mgm/kg, followed after 30 minutes by 20 mgm/kg and by 10 mgm/kg every 15 minutes until ventricular tachycardia was established. 10 minutes after the last ouabain injection, the test compound was continuously infused intravenously from a motor-driven syringe at a rate of 0.2 mgm/kg per minute, until sinus rhythm returned. The mean dose of ouabain to produce ventricular tachycardia was 60 ± 2.8 mg/kg. The mean dose of compound A required to convert the ventricular tachycardia to sinus rhythm was 0.76 ± 0.18 mg/kg i.v.

[2] = Acute i.v. toxicity in mice; conditions: mouse, in vivo, iv, tail vein, LITCHFIELD and WILCOXON, read-out: median lethal dose (LD50)
Method: 4. Acute i.v. toxicity in mice
Mice of both sexes having a body weight of 20 to 25 gm were used. The test compound was dissolved in distilled water and injected into the mice with a volume of 0.1 ml/10 gm body weight by way of a tail vein. Each dose was injected into 10 mice. The number of dead animals was determined and the median lethal dose (LD50) was calculated using the method of LITCHFIELD and WILCOXON [J. Pharmac. Exp. Ther. 96, 99 (1949)].

in vivo = format: in vivo, dog; conditions: dog, in vivo, iv
Method: (§4) 2. prevention of ventricular arrhythmia provoked by adrenalin in dogs under halothane anesthesia
(§5) According to the method described by ALLEN, et al in Brit. J. Pharmacol. 45, 561 (1972), dogs were anesthetized by subcutaneous injection of 0.5 mgm/kg morphine sulfate and by intravenous injection of 20 mg/kg pentobarbitone. The animals were given artificial respiration with room air from a Starling pump via a cuffed endotracheal tube. The electrocardiogram (lead II) was recorded on a Devices recorder (Type M 8 or M 4). The test compound was injected through a polyethylene catheter inserted into a foreleg vein.
(§6) Observations were made on 4 dogs. The artificial respiration was continued adding 1% halothane to the room air. 15 minutes later adrenalin was injected at doses of 0.2 and increased to 0.4, 0.8, 1.2, 1.6, 2.0, 2.4 and 2.8 […], at intervals of 7 to 10 minutes between each dose, until ventricular tachycardia had been produced. After the arrhythmia-producing dose of adrenalin had been established, compound A was injected intravenously. 5 minutes later the adrenalin injection was repeated, using the same dose. The dose of the test compound was increased to obtain the minimum dose which prevented the adrenalin-induced arrhythmia.
as §1, §2, §3
(§7) The lowest therapeutic dose was 0.1 mgm/kg i.v., which is about 100 to 200 times smaller than the mean toxic dose.

anesthetized dogs = assay: animal or person; format: in vivo, dog
Method: as §4, §5, §6, §1, §2, §3, §7

[3] = test system: adrenalin-induced ventricular arrhythmia in dogs; assay: Prevention of ventricular arrhythmia provoked by adrenalin in dogs under halothane anesthesia; format: in vivo, dog; conditions: Canis lupus familiaris, iv, 5 min, i.v., 4 dogs, adrenalin 5 minutes after compound, read-out: mean dose that abolished the adrenalin arrhythmias
Method: as §4, §5, §6

[4] = test system: isolated auricles of guinea pigs; assay: Reduction of the maximum driving frequency (MDF) of isolated auricles of guinea pigs; format: cell-based, guinea pig; conditions: Cavia porcellus; isolated left auricles; tyrode solution, 37° C., pH 7.4; cumulative addition; MDF 5 and 10 minutes after adding; read-out: EC50: concentration causing a 50% decrease of the maximum driving frequency (MDF)
Method: 1. reduction of the maximum driving frequency of isolated auricles of guinea pigs The tests were carried out using an adaption of the method of DAWES (Brit. J. Pharmacol.1, 90, 1946). Guinea pigs of both sexes, body weight between 300 and 400 gm were killed by a blow on the neck. The left auricles were quickly removed and put into an organ bath of 100 ml. The organ bath was filled with tyrode solution, which was infused with a mixture of 98% of oxygen and 2% of carbon dioxide. […] The auricles were stimulated with square wave impulses of 1 millisecond duration at a voltage 200% higher than the threshold voltage and a frequency of 1 Hz (Hugo Sachs, Stimulator II). A weight of 0.4 gm was applied to the auricles and the contractions were continuously measured isometrically by means of a force displacement transducer (Grass Ft 03) and recorded on a Grass polygraph (model 5). After sufficient equilibration time (15 min.) the stimulation rate was increased every 10 seconds by 1 Hz until the maximum driving frequency (MDF) was reached. The MDF is defined as the stimulation frequency, where every stimulation is still answered by a contraction. The MDF was determined before and 5 and 10 minutes after adding the test compound. The test compound was added cumulatively to the organ bath. The concentration causing a 50% decrease of the MDF (EC50) was calculated from a dose-response curve.

| EC50 [4] [µg/mL] | Structure (SMILES) | further results |
| --- | --- | --- |
| 8.3 | CNCCOc1ccccc1C=Cc1ccccn1 [B, 2-[0-(β-Methylamino-ethoxy)-styryl]-pyridine dihydrochloride] |  |
| 33 | C(=Cc1ccccc1OCCN1CCOCC1)c1ccccn1 [C, 2-[0-(β-Morpholino-ethoxy)-styryl]-pyridine dihydrochloride] |  |
| 6.3 | Cc1cccc(C=Cc2ccccc2OCCN(C)C)n1.Cl [Compound E, 2-[o-(β-Dimethylamino-ethoxy)-styryl]-6-methyl-pyridine hydrochloride] |  |
| 3.1 | CC(=Cc1ccccc1OCCN(C)C)c1ccccn1 [D, 1-[o-(β-Dimethylamino-ethoxy)-phenyl]-2-(pyridyl-2)-propene-1 monohydrochloride] |  |
| 10 | CN(C)CCOc1ccccc1C=Cc1ccc2ccccc2n1.Cl [F, 2-[o-(β-Dimethylamino-ethoxy)-styryl]-quinoline hydrochloride] |  |
| 9 | CN(C)CCOc1ccccc1C=Cc1nc2ccccc2n1C.Cl.Cl [G, 2-[o-(β-Dimethylamino-ethoxy)-styryl]-1-methyl-benzimidazole dihydrochloride] |  |
| 25 (≈ 92.8 µM) | CN(C)CCOc1ccccc1C=Cc1cnccn1 [H, 2-[o-(β-Dimethylamino-ethoxy)-styryl] -pyrazine] |  |
| 10 | CN(C)CCOc1ccccc1C=Cc1ccccc1.Cl [I, 2-(2-Dimethylamino-ethoxy)-stilbene hydrochloride] |  |
|  | C[C@@H]1O[C@@H](O[C@H]2C[C@@H](O)[C@]3(CO)[C@H]4[C@H](O)C[C@]5(C)[C@@H](C6=CC(=O)OC6)CC[C@]5(O)[C@@H]4CC[C@]3(O)C2)[C@H](O)[C@H](O)[C@H]1O [ouabain, reference compound] | mean dose of ouabain to produce ventricular tachycardia ([1]; intravenous): 60 ± 2.8 mg/kg |

| Structure (SMILES) | EC50 [4] [µg/mL] | further results |
| --- | --- | --- |
| CN(C)CCOc1ccccc1C=Cc1ccccn1.Cl [A, 2-[o-(β-Dimethylamino-ethoxy)-styryl]-pyridine monohydrochloride] | 3.8 | minimal effective dose ([1]; Canis lupus familiaris, iv, i.v. infusion 0.2 mgm/kg per minute, ouabain-induced tachycardia, read-out: mean dose required to convert the ventricular tachycardia to sinus rhythm): 0.76 ± 0.18 mg/kg; LD50 [2]: 25 mg/kg; selectivity ratio (in vivo): 100 to 200; minimal effective dose (anesthetized dogs; Canis lupus familiaris, iv, read-out: lowest therapeutic dose): 0.1 mg/kg; antiarrhythmic effectiveness (in words) (anesthetized dogs; anesthetized dogs): very effective antiarrhythmic compound; therapeutic ratio (in words) (anesthetized dogs; dog, in vivo, iv): excellent therapeutic ratio; minimal effective dose [3]: 0.18 ± 0.04 mg/kg |
